Earlier results, collected in patent US20060074053A1, “Ophthalmic solution containing quinolone antimicrobial compound” (SANTEN PHARMACEUTICAL CO., LTD., priority 2003, published 2006).

Conditions: after instillation of ciprofloxacin-containing ophthalmic solution; Am. J. Ophthalmol., 117, pp 258-259 (1994)

## O=C(O)c1cn(C2CC2)c2cc(N3CCNCC3)c(F)cc2c1=O [ciprofloxacin]
  precipitate on the surface of the eyes after instillation: liberated as a precipitate on the surface of the eyes (corneal epithelium)
